The values that follow come from PubChem BioAssay AID1035470 (Broad Institute, 2014).

This experiment relates to E. coli WT-GFP vs G2058-humanized RFP, fluorescence, 24 h. The experiment in a line: E. coli strain growth, wild-type against G2058 humanized RFP mutant – G2058 mutant RFP vs wild-type GFP, cherry-pick, two tests, dose response (AID 1035470).
Where [1] appears, read: E. coli WT-GFP vs G2058-humanized RFP mixed culture, total growth OD600, 24 h.
Where [2] appears, read: measured here: G2058 humanized mutant RFP growth.

Usually AC50 stands for the midpoint of the concentration-response curve, whichever way the signal moves.

Results filed as inconclusive are left out. Active and inactive are the calls of the source.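 Rule for the calls: active = compound lowering the normal-ribosome reporter at least twice as much as the humanized-ribosome reporter, growth loss under a set limit; inconclusive = no clear call, values can overlap the other calls; inactive = the rest.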

On to `COc1ccc(-c2nc(NC(C)=O)sc2-c2ccccc2)cc1`, for which the AC50 is > 100 µM (inactive). As for `CCOC(=O)c1c(C)[nH]c(C)c1S(=O)(=O)NCCN1CCN(c2ccccc2F)CC1`, the AC50 is > 100 µM (inactive). The AC50 under setting [1] was above 100 µM. In the case of `COC(=O)c1ccc(CCc2cc(O)c(Br)cc2O)cc1`, the AC50 under setting [1] is above 100 µM. With `O=C(O)CC1(CC(=O)Nc2ccc3sccc3c2)CCCCC1`, the AC50 was > 100 µM (inactive). On to `COc1ccc(OC2C(=O)N(Cc3ccc4c(c3)OCO4)C2c2sccc2C)cc1` (stereo unspecified), for which the AC50 is > 100 µM (inactive). Moreover, the AC50 under setting [1] was above 100 µM. In the case of `O=C(CN(c1ccc(F)cc1)S(=O)(=O)c1ccccc1)Nc1ccccc1C(=O)O`, the concentration at half-maximal activity (AC50) under setting [1] is above 100 µM. Consider `Brc1cc2c(cc1Br)OCCOCCOCCO2`, for which the AC50 is > 100 µM (inactive). Further, under setting [1], the AC50 was above 100 µM. Besides, the half-maximal activity concentration (AC50) under setting [2] was above 100 µM. On to `CC(=O)NCCOc1nc(N2CCCCC2)nc(N2CCCCC2)n1`, for which the AC50 is > 100 µM (inactive).

With `CCCCn1c(=O)[nH]c(=O)c2c1nc(-c1ccccc1F)n2Cc1ccccc1`, the AC50 was > 100 µM (inactive). Under setting [1], this compound returned a concentration at half-maximal activity (AC50) above 100 µM. Take `Nc1[nH]c(C(=O)c2ccccc2)c(-c2ccc(Br)cc2)c1C(=O)c1cccs1`: the AC50 is > 100 µM (inactive). Moreover, the AC50 under setting [1] is above 100 µM. On to `CCCNC(=O)c1cc(C2CCCN(S(=O)(=O)c3cccc4cccnc34)C2)on1` (stereo unspecified), for which the AC50 is > 100 µM (inactive). On to `CC(C)C[C@@H](CSc1ccccc1)N1CCN(CC(C)C)CCC1=O`, for which the AC50 is > 100 µM (inactive). In addition, the AC50 under setting [1] was above 100 µM. As to `O=C(Nc1ccc(Cl)cc1)N1C[C@H]2[C@@H](c3ccccc31)[C@@H](CO)N2C(=O)c1ccccn1`, the AC50 is > 100 µM (inactive).

With `CC1CCN(c2ccc3nnc(CCC(=O)Nc4cccc(F)c4)n3n2)CC1`, the AC50 is > 100 µM (inactive). This compound also showed an AC50 under setting [1] above 100 µM.

Consider `Cc1onc(-c2ccccc2Cl)c1C(=O)OCC(=O)c1ccccc1`, for which the AC50 is > 100 µM (inactive). `CC(C)(C)N(Cc1ccccc1)C(=O)COC(=O)Cn1cnc2ccccc2c1=O` had an AC50 under setting [1] above 100 µM. Consider `Cc1ccc(C)c(N2CCN(C(=O)CCS(=O)(=O)c3ccc4c(c3)oc(=O)n4C)CC2)c1`, for which, under setting [1], the AC50 was above 100 µM. In the case of `C=C(C)Cn1c(=O)c2c(nc3n2CC(C)CN3Cc2ccccc2)n(C)c1=O` (stereo unspecified), the AC50 is > 100 µM (inactive). As for `NC(=O)c1ccsc1NC(=O)COC(=O)CSc1ccc(Cl)cc1`, the AC50 was > 100 µM (inactive). The compound also came in with an AC50 under setting [1] above 100 µM. As for `CCCC(=O)Nc1cccc(C(=O)Nc2ccccc2OCC)c1`, the AC50 is > 100 µM (inactive). `O=C(c1ccc(N2CCCCC2)c([N+](=O)[O-])c1)N1CCN(c2ccccn2)CC1` displayed an AC50 under setting [1] above 100 µM. On to `COc1ccc(-c2csc(NC(=O)c3ccccc3S(C)(=O)=O)n2)cc1`, for which the AC50 was > 100 µM (inactive). Under setting [1], this compound yielded an AC50 above 100 µM. Under setting [2], this compound returned an AC50 above 100 µM. As for `O=C(CCc1ccccc1)Nc1sc2c(c1C(=O)O)CCCC2`, the AC50 was > 100 µM (inactive). On the same count and under the same terms, the value for `O=C(O)c1nn2c(C(F)(F)F)cc(-c3cccs3)nc2c1Cl` was > 100 µM (inactive).

For `O=C(Nc1cccc2ccccc12)c1ccc([N+](=O)[O-])o1`, the AC50 was > 100 µM (inactive). Under setting [1], this compound showed a half-maximal activity concentration (AC50) above 100 µM. As for `CN(C)C(CNS(=O)(=O)c1cc([N+](=O)[O-])ccc1Cl)c1ccco1` (stereo unspecified), the AC50 is > 100 µM (inactive).

Take `O=C(O)c1ccccc1NC(=O)C(c1ccccc1)c1ccccc1`: the AC50 is > 100 µM (inactive). Consider `COc1ccc(NC(=O)Nc2cccc3c2O[C@@H](CN(C)S(=O)(=O)c2ccc(Cl)cc2)[C@@H](C)CN([C@@H](C)CO)C3=O)cc1`, for which the AC50 was > 100 µM (inactive). As to `O=C(Nc1cccc(S(=O)(=O)c2cccc(NC(=O)C3CC3)c2)c1)C1CC1`, the half-maximal activity concentration (AC50) under setting [1] was above 100 µM. Regarding `O=C(C[C@H]1CC[C@H](NC(=O)Nc2ccccc2F)[C@H](CO)O1)NCc1ccc(-c2ccccc2)cc1`, the AC50 is > 100 µM (inactive). Under setting [1], this compound had an AC50 above 100 µM. With `CCOc1ccc2nc(SCC(=O)Nc3nonc3C)[nH]c2c1`, the AC50 was > 100 µM (inactive). In the case of `Cc1ccccc1NS(=O)(=O)c1cc(C(=O)NCCC2=CCCCC2)ccc1C`, the AC50 is > 100 µM (inactive). In turn, `Cc1cccc(-c2ccc([C@@H]3[C@@H](CO)N4CCCCN(S(=O)(=O)c5ccccc5C)C[C@@H]34)cc2)c1` came in with a concentration at half-maximal activity (AC50) under setting [1] above 100 µM. The same measure, in the same setting: under `Cc1onc(-c2ccccc2Cl)c1C(=O)Nc1ccc(Cl)cn1` stands above 100 µM. Turning to `CCn1cc(Br)c(C(=O)Nc2ccc(C(=O)OC(C)C)cc2)n1`, the AC50 was > 100 µM (inactive).

Compound `COc1ccccc1N(C)S(=O)(=O)c1ccc(Cl)c(C(=O)NC2=NCCS2)c1` came in with a half-maximal activity concentration (AC50) under setting [2] of 46.3 µM. Under setting [1], `COc1cc(NC(=O)c2ccc(Cl)cc2)c(OC)cc1NC(=O)CN1CCCCC1` gave a concentration at half-maximal activity (AC50) above 100 µM. `CC(=O)CSc1ccc(-c2nc3ccccc3[nH]2)cn1`: the AC50 is > 100 µM (inactive). For the same compound, the AC50 under setting [1] is above 100 µM.

Take `NS(=O)(=O)c1ccc(NC(=O)CCC(=O)O)cc1`: the AC50 under setting [1] is above 100 µM. Still for that read-out and setting: under `CC1Cc2ccccc2N1C(=O)CN1C(=O)NC(C)(CCc2ccccc2)C1=O` (stereo unspecified) stands above 100 µM. For `COc1ccc(OC)c(C(=O)COC(=O)c2ccc([N+](=O)[O-])o2)c1`, the AC50 was > 100 µM (inactive). This compound yielded a half-maximal activity concentration (AC50) under setting [1] above 100 µM. Take `N#CCC(=O)Nc1ccc(C(=O)OCC(=O)Nc2ccc3ccccc3c2)cc1`: the AC50 was > 100 µM (inactive). `CCOc1ccc(CN(C)C(=O)c2ccc(NS(=O)(=O)c3ccc4[nH]c(=O)[nH]c4c3)cc2)cc1` gave an AC50 under setting [1] above 100 µM. As for `CC(=O)Oc1ccc(N(C(C)=O)S(=O)(=O)c2ccc(C)cc2)c2ccccc12`, the AC50 was > 100 µM (inactive). Further, under setting [1], the half-maximal activity concentration (AC50) was above 100 µM.

For `COc1ccc(CNC(=O)c2nc(S(=O)(=O)Cc3ccccc3)ncc2Cl)cc1`, the AC50 was > 100 µM (inactive).

Take `COc1cccc(OC)c1CNC(=O)CCSCc1ccccc1F`: the AC50 is > 100 µM (inactive). For the same compound, the AC50 under setting [1] was above 100 µM. For the compound `O=C(Nc1cscc1S(=O)(=O)c1ccccc1)c1ccccc1Cl`, the AC50 is > 100 µM (inactive). Regarding `O=C1c2cccc(OCC(=O)N3CCCc4ccccc43)c2CCN1Cc1cccnc1`, the AC50 was > 100 µM (inactive). The compound also registered an AC50 under setting [1] above 100 µM.

In the case of `O=C(COC(=O)c1ccc([N+](=O)[O-])o1)NC12CC3CC(CC(C3)C1)C2`, the AC50 is > 100 µM (inactive). In the case of `CC[N+](CC)(CC#Cc1ccccc1)CC#Cc1ccccc1`, the AC50 was > 100 µM (inactive). This compound also displayed an AC50 under setting [1] above 100 µM. Regarding `Cc1ccc(NC(=O)c2ccc([N+](=O)[O-])o2)c(C)c1`, the AC50 is > 100 µM (inactive).

For the compound `CCN(CC)CCn1c(SCC(=O)Nc2cccc(OC)c2)nc2c(sc3ccccc32)c1=O`, the AC50 is > 100 µM (inactive). Moreover, under setting [1], the AC50 is above 100 µM. For `CCCC#C/C(CCC)=C1\c2ccccc2C(=O)N1c1ccccc1`, in that order: > 100 µM (inactive) and above 100 µM. `COC(=O)CNC(=O)COC(=O)c1ccc(Cl)nc1` yielded an AC50 under setting [1] above 100 µM. For `Cn1nc(C(C)(C)C)c([N+](=O)[O-])c1C(=O)Nc1ccc(Br)cc1`, the AC50 was > 100 µM (inactive).
